Our source for the MIC and IC50 values is ChEMBL document CHEMBL4043189, “Design, synthesis, and evaluation of substituted nicotinamide adenine dinucleotide (NAD+) synthetase inhibitors as potential antitubercular agents” (Bioorg Med Chem Lett, 2017).

The structures appear in SMILES notation. pIC50: −log10 of the molar value. In brackets after ≈: the same amount, converted by molar mass.

The MIC is the lowest concentration that inhibits growth of the organism. A higher MIC goes with a need for much substance. What is called pIC50 is −log10 of the IC50, conventionally taken in molar units.

The subject of assay [1] is Mycobacterium tuberculosis. Kind of assay: Antitubercular activity against Mycobacterium tuberculosis H37Rv ATCC 27294 grown under Middlebrook 7H9 broth after 2 weeks by microscopic analysis. Type of assay: functional. The settings on record: H37Rv ATCC 27294, 336 h.
Assay [2] has as its system Mycobacterium tuberculosis. Kind of assay: Antitubercular activity against NRP-2 stage of Mycobacterium tuberculosis H37Rv ATCC 27294 grown under glycerol free dubos broth after 7 days by microscopic analysis. The format is functional. To be noted: H37Rv ATCC 27294, 168 h.
A short description of assay [3]: Inhibition of recombinant Mycobacterium tuberculosis glutamine-dependent NadE using NAAD as substrate assessed as residual activity preincubated for 20 mins followed L-glutamine addition measured over 40 mins by spectrophotometric based PNP enzyme coupled assay.
The subject of a further assay is Bacillus anthracis. Kind of assay: Antibacterial activity against Bacillus anthracis Sterne spore forms measured every hour for 5 hrs by broth microdilution method. Type of assay: functional. On the technique in general: Dilution methods test growth across graded concentrations, often in twofold steps.
Assay [4] is described as follows: Inhibition of Bacillus anthracis NadE using guanidine-HCl as substrate after 10 mins by HPLC analysis.
Assay [5] can be described thus: Inhibition of recombinant Mycobacterium tuberculosis NH3-dependent NadE using NAAD as substrate assessed as residual activity preincubated for 20 mins followed NH4Cl addition measured over 40 mins by spectrophotometric based PNP enzyme coupled assay.
Assay [6] has as its system Mycobacterium tuberculosis. Description: Antitubercular activity against Mycobacterium tuberculosis H37Rv incubated for 7 days under anaerobic condition measured by broth microdilution method. The format is functional. The settings on record: 168 h.

`O=C(Nc1ccc([N+](=O)[O-])cc1)Nc1ccc(S(=O)(=O)Nc2ccc(Cl)cc2)cc1`: the MIC turned out to be 25 µg/mL (≈ 55.9 µM) in assay [1] and 37 µg/mL (≈ 82.8 µM) in assay [2]. The pIC50 in assay [3] is 3.28.

In the assay on Bacillus anthracis, `NCc1ccc(S(=O)(=O)Nc2ccc(NC(=O)Nc3cccc([N+](=O)[O-])c3)cc2)cc1` displayed an MIC of more than 240 µM. In assay [4], this compound gave a pIC50 of 4.82.

As to `NNC(=O)c1ccncc1` [ISONIAZID], the MIC in assay [1] came to 0.05 µg/mL (≈ 0.365 µM); in assay [2] it was 0.03 µg/mL (≈ 0.219 µM).

For `O=C(Nc1ccc([N+](=O)[O-])cc1)Nc1ccc(S(=O)(=O)Nc2ccccc2)cc1`, the figures for the MIC in assay [1] and in assay [2] were 75 µg/mL (≈ 182 µM) and 12.5 µg/mL (≈ 30.3 µM), respectively. The values for the pIC50 in assay [5] and in assay [3] were less than 3.70 and 3.90, respectively.

As to `COc1ccc(NS(=O)(=O)c2ccc(NC(=O)Nc3ccc([N+](=O)[O-])cc3)cc2)cc1`, the figures for the MIC in assay [1] and in assay [2] were 25 µg/mL (≈ 56.5 µM) and 50 µg/mL (≈ 113 µM), respectively. Moreover, the pIC50 in assay [5] is less than 3.70; in assay [3], 3.89.

As to `O=C(Nc1ccc([N+](=O)[O-])cc1)Nc1ccc(S(=O)(=O)Nc2cccc(C(F)(F)F)c2)cc1`, the figures for the MIC in assay [1] and in assay [2] were 37 µg/mL (≈ 77 µM) and 50 µg/mL (≈ 104 µM), respectively. The values for the pIC50 in assay [5] and in assay [3] were less than 3.70 and 3.89, respectively.

Compound `COC(=O)c1cc2cc(OCc3ccccc3)ccc2n1CCCCCCCOC(=O)Cc1ccc([N+](C)(C)C)cc1` had an MIC in assay [6] of 20 µM.

Consider `O=C(Nc1ccc([N+](=O)[O-])cc1)Nc1ccc(S(=O)(=O)Nc2ccc(Cl)c(Cl)c2)cc1`, for which the MIC turned out to be 25 µg/mL (≈ 51.9 µM) in assay [1] and 50 µg/mL (≈ 104 µM) in assay [2]. In addition, the values for the pIC50 in assay [4] and in assay [3] were 5.19 and 3.00, respectively.

For the compound `O=C(Nc1ccc([N+](=O)[O-])cc1)Nc1ccc(S(=O)(=O)Nc2ccc(I)cc2)cc1`, the MIC in assay [1] amounted to 37 µg/mL (≈ 68.7 µM); in assay [2] it was 50 µg/mL (≈ 92.9 µM). The pIC50 in assay [3] is 3.43.

`O=C(Nc1ccc([N+](=O)[O-])cc1)Nc1ccc(S(=O)(=O)Nc2ccc(F)cc2)cc1`: the MIC in assay [1] came out at 19 µg/mL (≈ 44.1 µM); in assay [2], 25 µg/mL (≈ 58.1 µM). In assay [3], the pIC50 was 3.77.

On to `O=C(Nc1ccc([N+](=O)[O-])cc1)Nc1ccc(S(=O)(=O)Nc2ccc([N+](=O)[O-])c(C(F)(F)F)c2)cc1`, for which the MIC came out at 100 µg/mL (≈ 190 µM) in assay [1] and 50 µg/mL (≈ 95.2 µM) in assay [2]. Also, the pIC50 in assay [3] was 3.72.

For `N#Cc1ccc(NS(=O)(=O)c2ccc(NC(=O)Nc3ccc([N+](=O)[O-])cc3)cc2)cc1`, the MIC in assay [1] and in assay [2] was 37 µg/mL (≈ 84.6 µM) throughout. For the same compound, in assay [3], the negative logarithm of the IC50 (pIC50) is 3.72.

On to `O=C(Nc1ccc([N+](=O)[O-])cc1)Nc1ccc(S(=O)(=O)Nc2cccc([N+](=O)[O-])c2)cc1`, for which the figures for the MIC in assay [1] and in assay [2] were 25 µg/mL (≈ 54.7 µM) and 12.5 µg/mL (≈ 27.3 µM), respectively. Moreover, the pIC50 in assay [3] is 3.77.

As for `O=C(Nc1ccc([N+](=O)[O-])cc1)Nc1ccc(S(=O)(=O)Nc2ccc([N+](=O)[O-])cc2)cc1`, the MIC turned out to be 37 µg/mL (≈ 80.9 µM) in assay [1] and 25 µg/mL (≈ 54.7 µM) in assay [2]. Besides, the pIC50 in assay [5] is less than 3.70; in assay [3] it was 4.05.

In the case of `O=C(Nc1ccc([N+](=O)[O-])cc1)Nc1ccc(S(=O)(=O)Nc2ccc(O)cc2)cc1`, the MIC in assay [1] was 37 µg/mL (≈ 86.4 µM); in assay [2], 50 µg/mL (≈ 117 µM). Moreover, the pIC50 in assay [3] is 3.80.
